The source of these data is US11229204B2, “Herbicidal composition comprising at least one phenolic active compound” (UNIVERSITÉ DE LIÈGE, priority 2018, dated 2022).

Assay [1] concerns Raphanus sativus and Lepidium sativum. The following applies: 27 flavonoids tested; only poor results on radical elongation for the highest tested concentration of 10^−4M; cited from earlier work.
Assay [2] concerns Trifolium incarnatum. Put plainly: Pre-emergence activity, experiment n° 2: hypocotyl and root lengths of seeds on moistened filter paper. The following applies: 100 mg/L in methanol 1%. Format: in vivo. On the procedure: Seeds of Trifolium incarnatum were obtained from ECOSEM industry (Belgium). Filter papers were placed in petri dishes and moistened with 2 ml of methanol 1% solution for the seedling control, or with myricitrin solution at 100 mg/L in methanol 1% for the treated seedling. Methanol was identified as a solvent not interfering with the pre-emergence of plants. Ten seeds of Trifolium incarnatum were then placed immediately in each petri dish and three replicates were prepared. All petri dishes were randomly placed in a growth chamber at a temperature of 23±1° C., in the dark and the hypocotyls and root lengths were measured after 7 days.

Turning to `O=c1c(O)c(-c2ccc(O)c(O)c2)oc2cc(O)cc(O)c12` [quercetin, 3,5,7,3′,4′-penta-OH-flavone], the “effect on germination and radical elongation” value in assay [1] was “act on germination and on radical elongation”.

Take `C[C@@H]1O[C@@H](Oc2c(-c3cc(O)c(O)c(O)c3)oc3cc(O)cc(O)c3c2=O)[C@H](O)[C@H](O)[C@H]1O` [myricitrin]: the “seed germination compared with control” value in assay [2] (7 incubation days) is “inhibited seed germination”. The “development of roots and hypocotyls” value in assay [2] (7 days (FIG. 5)) was “inhibited”. In addition, the “phytotoxic effect on the pre-emergence in comparison with the control” value in assay [2] (7 days, 23±1° C., dark (FIG. 5)) is given as “significant phytotoxic effect”.

With `COc1c(-c2ccccc2)oc2ccccc2c1=O` [3-OCH3-flavone], the “effect on germination and radical elongation” value in assay [1] was “act on germination and on radical elongation”.

Turning to `O=C1C[C@@H](c2ccccc2)Oc2cc(O)cc(O)c21` [pinocembrin, 5,7-di-OH-flavanone], the “effect on germination and radical elongation” value in assay [1] was “act on germination and on radical elongation”.

Regarding `COc1ccc(-c2cc(=O)c3ccccc3o2)cc1OC` [3′,4′-di-OCH3-flavone], the “effect on germination and radical elongation” value in assay [1] was “act on germination and on radical elongation”.
